Data from PMC12291762 (Antioxidants, 2025).

Tests used:
[1] = tested on: carrageenan-induced rat paw edema; test: Carrageenan-induced rat paw edema model of acute inflammation; type: in vivo, Wistar albino rats; conditions: for % of inhibition of paw edema, 1 h / Rat paw thickness, 1 h / % of inhibition of paw edema, 2 h / Rat paw thickness, 2 h / % of inhibition of paw edema, 3 h / Rat paw thickness, 3 h / Rat paw thickness, 4 h / % of inhibition of paw edema, 4 h / Anti-inflammatory effect on edema diameter compared to the control group (significance): 0.0315 mmol/kg i.p.; for % of inhibition of paw edema, 1 h / % of inhibition of paw edema, 2 h / % of inhibition of paw edema, 3 h / % of inhibition of paw edema, 4 h: vs solvent group; for Rat paw thickness, 1 h: 1 h post-carrageenan; for Rat paw thickness, 1 h / Rat paw thickness, 2 h / Rat paw thickness, 3 h / Rat paw thickness, 4 h / Rat paw thickness, 0 h: mean ± SD; for Rat paw thickness, 2 h: 2 h post-carrageenan; for Rat paw thickness, 3 h: 3 h post-carrageenan; for Rat paw thickness, 4 h: 4 h post-carrageenan; for Rat paw thickness, 0 h: immediately before inflammation induction; for Anti-inflammatory effect on edema diameter compared to the control group (significance): from 2nd hour to end of observation
Description: Inflammation was induced in all rats by an intraplantar injection of 100 μL of freshly prepared 1% carrageenan solution in distilled water into the left hind paw. A total of 56 male Wistar albino rats were randomly divided into five experimental groups (n = 40 rats, 8 rats per subgroup) and two control groups (n = 16 rats, 8 rats per subgroup).
The experimental groups consisted of rats that received synthesized compounds via intraperitoneal injection immediately following carrageenan administration. The solutions of the investigated molecules were prepared by dissolving the compound in distilled water with the addition of a few drops of Tween 80 [18], whereby each rat received 500 μL of the prepared solution. […] The negative control group included rats that received an intraperitoneal injection of the solvent solution (distilled water with a few drops of Tween 80) at the same time point.
To quantify the anti-edematous effect, the thickness of the left paw tissue of each rat was measured at specific time intervals: immediately before inflammation induction (moment 0) and at 1, 2, 3, and 4 h post-induction (moments 1, 2, 3, and 4, respectively). Tissue thickness was assessed in the middle of the rat paw using a digital vernier caliper (Aerospace, Beijing, China).

[2] = tested on: systemic oxidative stress parameters; test: Systemic redox state (plasma, erythrocyte lysate) 24 h after carrageenan; type: in vivo, Wistar albino rats
Description: Following 24 h of carrageenan-induced paw edema inflammation model and intraperitoneal anesthesia induced by ketamine/xylazine (100/10 mg/kg of BW), the animals were sacrificed, while whole-blood samples and edema-affected paw tissues were isolated. After centrifugation of whole blood, plasma and erythrocyte lysate samples were separated for further examination of the applied compounds’ effects on the systemic redox balance state. Pro-oxidative markers including superoxide anion radical (O2∙^−), hydrogen peroxide (H2O2) nitrites (NO2^−), and index of lipid peroxidation measured as thiobarbituric acid (TBA) reactive substances (TBARS) were determined from plasma samples, while the antioxidant capacity, including superoxide dismutase (SOD) and catalase (CAT) activity, as well as the reduced glutathione (GSH) level were examined in erythrocyte lysate samples [46]. […] Edema-affected paw tissue samples were weighed (100 mg) and homogenized (OmniPrep™ multi-sample homogenizer, Omni International, Kennesaw, GA, USA) in 900 µL phosphate buffer on ice (pH = 7.4), and centrifuged at 12,000 rpm for 20 min. These supernatant samples were used for the determination of the aforementioned pro-oxidative and antioxidative parameters levels. All oxidative stress analyses were performed spectrophotometrically using a Shimadzu UV 1800 spectrophotometer (Kyoto, Japan).
Determination of the O2∙^− level was conducted by adding 950 µL of a Nitro Blue Tetrazolium (NBT) mixture with TRIS buffer in 50 µL of sample, measured at the 550 nm wavelength. The level of H2O2 was determined during the oxidation of phenol red by H2O2, which was catalyzed with horseradish peroxidase and measured at the 610 nm wavelength. Indirect measurement of nitrites was performed by the precipitation of samples with 30% sulfo-salicylic acid, followed by vortexing and centrifugation at 3000 rpm for 15 min. The equal volumes of isolated supernatant and Griess’ reagent (containing 1% sulfanilamide in 5% phosphoric acid/0.1% naphthalene ethylenediamine-dihydrochloride) were incubated for 10 min and measured at the 550 nm wavelength. The TBARS concentration was determined by adding 400 µL of sample to 200 µL of TBA in 0.05 M NaOH, followed by 15 min incubation at 100 °C. Measurement was performed at the 530 nm wavelength.
The epinephrine method was used for SOD determination. By adding 100 µL of sample, the same volume of epinephrine, and 1000 µL of carbonate buffer, the measurement was performed at the 470 nm wavelength. The determination of CAT activity was based on the preparation of a mixture containing 100 µL of sample, 50 µL of catalase buffer, and 1000 µL of 10 mM H2O2, which was measured at the 230 nm wavelength.

COX-1 = biological target: T1, COX-1 (Ovis aries, UniProt P05979); test: Fluorometric COX-1 inhibitor screening kit; type: biochemical; parameters: purchased Abcam ab204698; conditions: mean ± standard error, three independent measurements
T1 sequence (P05979 25-600): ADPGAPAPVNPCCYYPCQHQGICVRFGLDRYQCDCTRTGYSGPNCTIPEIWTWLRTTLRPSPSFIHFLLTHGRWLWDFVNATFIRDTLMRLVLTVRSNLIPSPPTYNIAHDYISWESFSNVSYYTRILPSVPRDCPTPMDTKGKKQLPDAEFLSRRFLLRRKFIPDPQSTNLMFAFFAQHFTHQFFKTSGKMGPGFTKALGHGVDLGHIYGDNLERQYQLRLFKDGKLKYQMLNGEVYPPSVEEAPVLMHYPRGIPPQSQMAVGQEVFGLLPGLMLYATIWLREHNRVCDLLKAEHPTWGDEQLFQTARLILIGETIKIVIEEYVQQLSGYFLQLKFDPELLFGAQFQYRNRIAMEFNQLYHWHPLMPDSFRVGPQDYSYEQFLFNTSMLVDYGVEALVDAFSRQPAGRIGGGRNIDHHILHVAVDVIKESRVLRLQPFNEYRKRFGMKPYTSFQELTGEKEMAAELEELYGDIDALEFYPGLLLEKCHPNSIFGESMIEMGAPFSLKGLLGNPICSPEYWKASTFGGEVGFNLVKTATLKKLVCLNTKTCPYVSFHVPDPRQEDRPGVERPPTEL
Description: The inhibitory activity of the tested compounds against COX-1 and COX-2 isoforms was assessed using fluorometric cyclooxygenase inhibitor screening kits (Catalog Numbers ab204698 and ab283401, respectively; Abcam, Cambridge, UK). These assays detect the formation of prostaglandin G2, a product of COX enzymatic activity, via fluorometric measurement.
Stock solutions of the test compounds were prepared at a concentration of 5 mM in DMSO and subsequently diluted with the same solvent to obtain the test solutions. For the assay preparation, 2 μL of each test solution was diluted with 8 μL of COX assay buffer. The solvent control (SC) consisted of 2 μL of DMSO and 8 μL of assay buffer, while the enzyme control (EC) contained 10 μL of assay buffer alone. Sample wells (S) received 10 μL of the diluted test solutions. All other steps were in accordance with the manufacturer’s protocol and the previously published article. […] The percentage of inhibition was calculated as follows:(3) % Relative Inhibition=Slope of EC−Slope of S/Slope of EC×100
Fluorescence measurements were conducted on a BioTek Synergy LX multi-mode reader (Winooski, VT, USA).

Row | SMILES | IC50 (COX-1) | % of inhibition of paw edema, 1 h [1] | Rat paw thickness, 1 h [1] | % of inhibition of paw edema, 2 h [1] | Rat paw thickness, 2 h [1] | % of inhibition of paw edema, 3 h [1] | Rat paw thickness, 3 h [1] | Rat paw thickness, 4 h [1] | Rat paw thickness, 0 h [1] | Systemic SOD activity compared to Dex group ([2]; erythrocyte lysate) | Systemic O2∙− level compared to Dex group ([2]; plasma) | Systemic O2∙− level compared to untreated (Sol) rats ([2]; plasma) | Systemic TBARS level compared to Dex group ([2]; plasma) | % of inhibition of paw edema, 4 h [1] | Anti-inflammatory effect on edema diameter compared to the control group (significance) [1] | Systemic CAT activity compared to Dex group ([2]; erythrocyte lysate) | Systemic GSH level compared to untreated rats ([2]; erythrocyte lysate) | Systemic H2O2 level compared to Dex group ([2]; plasma) | Systemic TBARS level compared to Sol (untreated) rats ([2]; plasma) | Systemic GSH level compared to Dex group ([2]; erythrocyte lysate)
1 | C[C@H](NC(=O)[C@@H](C)c1cccc(C(=O)c2ccccc2)c1)C(=O)O [Compound 2, ((S)-2-(3-benzoylphenyl)propanoyl)-L-alanine] | > 100 µM | 16.090% | 6.52 ± 0.28 mm | 26.619% | 6.36 ± 0.25 mm | 33.684% | 5.92 ± 0.19 mm | 5.08 ± 0.54 mm | 4.66 ± 0.13 mm | no statistical differences | no significant difference | significantly lower | – | 62.941% | significantly reduced the edema diameter | highest potential to increase CAT activity | significantly increased GSH level | – | – | –
2 | C[C@H](C(=O)NCCCC(=O)O)c1cccc(C(=O)c2ccccc2)c1 [Compound 5, (S)-4-(2-(3-benzoylphenyl)propanamido)butanoic acid] | > 100 µM | 7.068% | 5.52 ± 0.25 mm | 17.122% | 5.38 ± 0.48 mm | 18.947% | 5.00 ± 0.29 mm | 4.28 ± 0.37 mm | 3.46 ± 0.29 mm | no statistical differences | no significant difference | significantly lower | – | 27.647% | – | – | significantly increased GSH level | did not differ significantly | significantly reducing | –
3 | C[C@H](C(=O)NCC(=O)O)c1cccc(C(=O)c2ccccc2)c1 [Compound 1, (S)-(2-(3-benzoylphenyl)propanoyl)glycine] | > 100 µM | 5.263% | 5.68 ± 0.25 mm | 13.669% | 5.58 ± 0.34 mm | 16.842% | 5.16 ± 0.34 mm | 4.50 ± 0.29 mm | 3.58 ± 0.13 mm | significantly lower activity | significantly higher concentration | – | dexketoprofen injection significantly decreased the TBARS concentration compared to the Sol group, as well as rats treated with compounds 1, 3, and 4 | 18.824% | did not achieve an anti-inflammatory effect at any measurement times | – | – | – | significantly reducing | –

Second part, led by results:

Row | IC50 (COX-1) | SMILES | % of inhibition of paw edema, 1 h [1] | Rat paw thickness, 1 h [1] | % of inhibition of paw edema, 2 h [1] | Rat paw thickness, 2 h [1] | % of inhibition of paw edema, 3 h [1] | Rat paw thickness, 3 h [1] | Rat paw thickness, 4 h [1] | Rat paw thickness, 0 h [1] | Systemic SOD activity compared to Dex group ([2]; erythrocyte lysate) | Systemic O2∙− level compared to Dex group ([2]; plasma) | Systemic O2∙− level compared to untreated (Sol) rats ([2]; plasma) | Systemic TBARS level compared to Dex group ([2]; plasma) | % of inhibition of paw edema, 4 h [1] | Anti-inflammatory effect on edema diameter compared to the control group (significance) [1] | Systemic CAT activity compared to Dex group ([2]; erythrocyte lysate) | Systemic GSH level compared to untreated rats ([2]; erythrocyte lysate) | Systemic H2O2 level compared to Dex group ([2]; plasma) | Systemic TBARS level compared to Sol (untreated) rats ([2]; plasma) | Systemic GSH level compared to Dex group ([2]; erythrocyte lysate)
4 | > 100 µM | C[C@H](C(=O)N[C@@H](Cc1ccccc1)C(=O)O)c1cccc(C(=O)c2ccccc2)c1 [Compound 3, ((S)-2-(3-benzoylphenyl)propanoyl)-L-phenylalanine] | 10.526% | 6.25 ± 0.25 mm | 20.863% | 6.10 ± 0.18 mm | 22.807% | 5.73 ± 0.23 mm | 4.93 ± 0.37 mm | 4.27 ± 0.21 mm | significantly lower activity | no significant difference | significantly lower | dexketoprofen injection significantly decreased the TBARS concentration compared to the Sol group, as well as rats treated with compounds 1, 3, and 4 | – | – | – | – | – | – | –
5 | > 100 µM | C[C@H](C(=O)N[C@@H](Cc1c[nH]c2ccccc12)C(=O)O)c1cccc(C(=O)c2ccccc2)c1 [Compound 4, ((S)-2-(3-benzoylphenyl)propanoyl)-L-tryptophan] | 15.038% | 5.90 ± 0.37 mm | 24.460% | 5.77 ± 0.36 mm | 28.070% | 5.38 ± 0.34 mm | 4.48 ± 0.33 mm | 4.02 ± 0.12 mm | significantly lower activity | significantly higher concentration | – | dexketoprofen injection significantly decreased the TBARS concentration compared to the Sol group, as well as rats treated with compounds 1, 3, and 4 | 58.824% | significantly reduced the edema diameter | decreased this enzyme activity | – | – | – | significantly reduced
